In patent US20130090327A1, “Inhibitors of Protein Tyrosine Kinase Activity” (METHYLGENE INC., priority 2011, published 2013):

molecular target: T1, VEGFR2 (KDR) (Homo sapiens, UniProt P35968); test: In Vitro Receptor Tyrosine Kinase Assay (VEGF Receptor KDR); type: biochemical; settings: recombinant GST-VEGFR2 806-1356, DELFIA assay, ATP 0.6 uM, enzyme 5 nM; read-out: VEGFR_IC50_UM
T1 construct: made in house; host or cells: Sf9 cells (Spodoptera frugiperda), baculovirus (Bac-to-Bac)
From the text: In Vitro Receptor Tyrosine Kinase Assay (VEGF Receptor KDR)
This test measures the ability of compounds to inhibit the enzymatic activity of recombinant human VEGF receptor enzymatic activity.
A 1.6-kb cDNA corresponding to the catalytic domain of VEGFR2 (KDR) (Genbank accession number AF035121 amino acid 806 to 1356) is cloned into the Pst I site of the pDEST20 Gateway vector (Invitrogen) for the production of a GST-tagged version of that enzyme. This construct is used to generate recombinant baculovirus using the Bac-to-Bac™ system according to the manufacturer's instructions (Invitrogen).
The GST-VEGFR2806-1356 protein is expressed in Sf9 cells (Spodoptera frugiperda) upon infection with recombinant baculovirus construct. Briefly, Sf9 cells grown in suspension and maintained in serum-free medium (Sf900 II supplemented with gentamycin) at a cell density of about 2×10^6 cells/ml are infected with the above-mentioned viruses at a multiplicity of infection (MOI) of 0.1 during 72 hours at 27° C. with agitation at 120 rpm on a rotary shaker. Infected cells are harvested by centrifugation at 398 g for 15 min. Cell pellets are frozen at […] until purification is performed.
All steps described in cell extraction and purification are performed at 4° C. Frozen Sf9 cell pellets infected with the GST-VEGFR2806-1356 recombinant baculovirus are thawed and gently resuspended in Buffer A (PBS pH 7.3 supplemented with 1 μg/ml pepstatin, 2 μg/ml Aprotinin and leupeptin, 50 μg/ml PMSF, 50 μg/ml TLCK and 10 μM E64 and 0.5 mM DTT) using 3 ml of buffer per gram of cells. Suspension is Dounce homogenized and 1% Triton X-100 is added to the homogenate after which it is centrifuged at 22500 g, 30 min., 4° C. The supernatant (cell extract) is used as starting material for purification of GST-VEGFR2806-1356.
The supernatant is loaded onto a GST-agarose column (Sigma) equilibrated with PBS pH 7.3. Following a four column volume (CV) wash with PBS pH 7.3+1% Triton X-100 and 4 CV wash with buffer B (50 mM Tris pH 8.0, 20% glycerol and 100 mM NaCl), bound proteins are step eluted with 5 CV of buffer B supplemented with 5 mM DTT and 15 mM glutathion. GST-VEGFR2806-1356 enriched fractions from this chromatography step are pooled based on U.V. trace i.e. fractions with high O.D.280. Final GST-VEGFR2806-1356 protein preparations concentrations are about 0.7 mg/ml with purity approximating 70%. Purified GST-VEGFR2806-1356 protein stocks are aliquoted and frozen at −80° C. prior to use in enzymatic assay.
Inhibition of VEGFR/KDR is measured in a DELFIA™ assay (Perkin Elmer). The substrate poly(Glu4,Tyr) is immobilized onto black high-binding polystyrene 96-well plates. The coated plates are washed and stored at 4° C. During the assay, the enzyme is pre-incubated with inhibitor and Mg-ATP on ice in polypropylene 96-well plates for 4 minutes, and then transferred to the coated plates. The subsequent kinase reaction takes place at 30° C. for 10-minutes. ATP concentrations in the assay are 0.6 uM for VEGFR/KDR (2× the Km). Enzyme concentration is 5 nM. After incubation, the kinase reactions are quenched with EDTA and the plates are washed. Phosphorylated product is detected by incubation with Europium-labeled anti-phosphotyrosine MoAb. After washing the plates, bound MoAb is detected by time-resolved fluorescence in a Gemini SpectraMax reader (Molecular Devices). Compounds are evaluated over a range of concentrations, and IC50 values (concentration of compounds giving 50% inhibition of enzymatic activity) are determined.

T1 sequence (P35968 806-1356): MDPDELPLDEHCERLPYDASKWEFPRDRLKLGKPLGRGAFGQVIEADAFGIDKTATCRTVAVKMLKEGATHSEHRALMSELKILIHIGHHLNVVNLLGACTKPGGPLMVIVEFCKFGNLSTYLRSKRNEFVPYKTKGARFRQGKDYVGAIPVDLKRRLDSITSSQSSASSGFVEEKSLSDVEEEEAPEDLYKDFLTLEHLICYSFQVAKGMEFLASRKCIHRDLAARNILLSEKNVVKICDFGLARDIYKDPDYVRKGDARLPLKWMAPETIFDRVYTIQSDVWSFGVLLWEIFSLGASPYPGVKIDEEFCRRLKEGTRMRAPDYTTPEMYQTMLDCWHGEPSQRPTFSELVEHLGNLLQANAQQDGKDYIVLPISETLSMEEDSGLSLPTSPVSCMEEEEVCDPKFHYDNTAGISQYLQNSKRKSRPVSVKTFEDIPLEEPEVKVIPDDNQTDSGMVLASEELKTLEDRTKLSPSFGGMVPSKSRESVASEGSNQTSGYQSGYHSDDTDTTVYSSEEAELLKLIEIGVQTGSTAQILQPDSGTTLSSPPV

Row | SMILES | IC50 [nM]
1 | CCNC(=O)NC1CCN(Cc2ccc(-c3cc4nccc(Oc5ccc(NC(=O)NC6CN(C(C)=O)C6)cc5F)c4s3)nc2)CC1 [Compound 44] | 157
2 | CC(=O)N1CC(NC(=O)Nc2ccc(Oc3ccnc4cc(-c5ccc(CN6CCN(C)CC6)cn5)sc34)c(F)c2)C1 [Compound 51] | 100
3 | CCNC(=O)N(CCOC)Cc1ccc(-c2cc3nccc(Oc4ccc(NC(=O)NC5CN(C(=O)NCC)C5)cc4F)c3s2)nc1 [Compound 69, N-Ethyl-3-(3-(4-(2-(5-((3-ethyl-1-(2-methoxyethyl)ureido)methyl)pyridin-2-yl)thieno[3,2-b]pyridin-7-yloxy)-3-fluorophenyl)ureido)azetidine-1-carboxamide] | 584
4 | COCCN(Cc1ccc(-c2cc3nccc(Oc4ccc(NC(=O)NC5COC5)cc4F)c3s2)nc1)C(=O)OC(C)(C)C [Compound 104] | 197
5 | CN1CCN(Cc2ccc(-c3cc4nccc(Oc5ccc(NC(=O)NC6CN(C)C6)cc5F)c4s3)nc2)CC1 [Compound 19, 1-(3-Fluoro-4-(2-(5-((4-methylpiperazin-1-yl)methyl)pyridin-2-yl)thieno[3,2-b]pyridin-7-yloxy)phenyl)-3-(1-methylazetidin-3-yl)urea] | 975
6 | CC(=O)N1CC(NC(=O)Nc2ccc(Oc3ccnc4cc(-c5ccc(CN6CC(N)C6)cn5)sc34)c(F)c2)C1 [Compound 46] | 130
7 | CC(=O)N1CC(NC(=O)Nc2ccc(Oc3ccnc4cc(-c5ccc(CN6CCOC6=O)cn5)sc34)c(F)c2)C1 [Compound 113, 1-(1-Acetylazetidin-3-yl)-3-(3-fluoro-4-(2-(5-((2-oxooxazolidin-3-yl)methyl)pyridin-2-yl)thieno[3,2-b]pyridin-7-yloxy)phenyl)urea] | 95
8 | CC(=O)N1CC(NC(=O)Nc2ccc(Oc3ccnc4cc(-c5ccc(CN6CC(NC(=O)OC(C)(C)C)C6)cn5)sc34)c(F)c2)C1 [Compound 46-A] | 137
9 | CCOC(=O)C1CCCN(Cc2ccc(-c3cc4nccc(Oc5ccc(NC(=O)NC6COC6)cc5F)c4s3)nc2)C1 (centres unmarked) [Compound 73, Ethyl 1-((6-(7-(2-fluoro-4-(3-oxetan-3-ylureido)phenoxy)thieno[3,2-b]pyridin-2-yl)pyridin-3-yl)methyl)piperidine-3-carboxylate] | 523
10 | COCCN(Cc1ccc(-c2cc3nccc(Oc4ccc(NC(=O)NC5CN(C(=O)OC(C)(C)C)C5)cc4F)c3s2)nc1)C(=O)OC(C)(C)C [Compound 67, tert-Butyl 3-(3-(4-(2-(5-((tert-butoxycarbonyl(2-methoxyethyl)amino)methyl)pyridin-2-yl)thieno[3,2-b]pyridin-7-yloxy)-3-fluorophenyl)ureido)azetidine-1-carboxylate] | 57
11 | CC(=O)N1CC(NC(=O)Nc2ccc(Oc3ccnc4cc(-c5ccc(CN6CCC(N)CC6)cn5)sc34)c(F)c2)C1 [Compound 41, 1-(1-Acetylazetidin-3-yl)-3-(4-(2-(5-((4-aminopiperidin-1-yl)methyl)pyridin-2-yl)thieno[3,2-b]pyridin-7-yloxy)-3-fluorophenyl)urea] | 78
12 | COCCNCc1ccc(-c2cc3nccc(Oc4ccc(Nc5nc6cc(Cl)ccc6[nH]5)cc4F)c3s2)nc1 [Compound 63, 5-Chloro-N-(3-fluoro-4-(2-(5-((2-methoxyethylamino)methyl)pyridin-2-yl)thieno[3,2-b]pyridin-7-yloxy)phenyl)-1H-benzo[d]imidazol-2-amine] | 268

Next, values leading:

Row | IC50 [nM] | SMILES
13 | 12 | COCCN(Cc1ccc(-c2cc3nccc(Oc4ccc(NC(=O)NC5COC5)cc4F)c3s2)nc1)C(C)=O [Compound 106]
14 | 32 | CC(=O)N1CC(NC(=O)Nc2ccc(Oc3ccnc4cc(-c5ccc(CN6CCC(N(C)C(=O)CO)CC6)cn5)sc34)c(F)c2)C1 [Compound 47]
15 | 56 | O=C(CO)N1CCN(Cc2ccc(-c3cc4nccc(Oc5ccc(Nc6nc7cc(Cl)ccc7[nH]6)cc5F)c4s3)nc2)CC1 [Compound 61, 1-(4-((6-(7-(4-(5-Chloro-1H-benzo[d]imidazol-2-ylamino)-2-fluorophenoxy)thieno[3,2-b]pyridin-2-yl)pyridin-3-yl)methyl)piperazin-1-yl)-2-hydroxyethanone]
16 | 23 | COCCN(Cc1ccc(-c2cc3nccc(Oc4ccc(Nc5nc6cc(Cl)ccc6[nH]5)cc4F)c3s2)nc1)C(=O)CO [Compound 65, N-((6-(7-(4-(5-Chloro-1H-benzo[d]imidazol-2-ylamino)-2-fluorophenoxy)thieno[3,2-b]pyridin-2-yl)pyridin-3-yl)methyl)-2-hydroxy-N-(2-methoxyethyl)acetamide]
17 | 31 | COCCN(Cc1ccc(-c2cc3nccc(Oc4ccc(NC(=O)NC5COC5)c(F)c4F)c3s2)nc1)C(=O)OC(C)(C)C [Compound 108]
18 | 59 | CC(C)(C)OC(=O)N1CC(NC(=O)Nc2ccc(Oc3ccnc4cc(-c5ccc(CN6CCOC6=O)cn5)sc34)c(F)c2)C1 [Compound 111]
19 | 44 | CN1CCN(Cc2ccc(-c3cc4nccc(Oc5ccc(Nc6nc7cc(Cl)ccc7[nH]6)cc5F)c4s3)nc2)CC1 [Compound 62, 5-Chloro-N-(3-fluoro-4-(2-(5-((4-methylpiperazin-1-yl)methyl)pyridin-2-yl)thieno[3,2-b]pyridin-7-yloxy)phenyl)-1H-benzo[d]imidazol-2-amine]
20 | 56 | CN(C)[C@H]1CCN(C(=O)c2cc3nccc(Oc4ccc(NC(=O)NC5COC5)cc4F)c3s2)C1 [Compound 107]
21 | 11 | COCCN(Cc1ccc(-c2cc3nccc(Oc4ccc(NC(=O)NC5COC5)c(F)c4F)c3s2)nc1)C(C)=O [Compound 109]
22 | 61 | CC(=O)N1CC(NC(=O)Nc2ccc(Oc3ccnc4cc(-c5ccc(CN6CCC(NC(=O)CO)CC6)cn5)sc34)c(F)c2)C1 [Compound 43, N-(1-((6-(7-(4-(3-(1-Acetylazetidin-3-yl)ureido)-2-fluorophenox)thieno[3,2-b]pyridin-2-yl)pyridin-3-yl)methyl)piperidin-4-yl)-2-hydroxyacetamide]
23 | 62 | CC(=O)N1CC(NC(=O)Nc2ccc(Oc3ccnc4cc(-c5ccc(CN6CC(NC(=O)CO)C6)cn5)sc34)c(F)c2)C1 [Compound 48]
24 | 58 | CN1CCN(Cc2ccc(-c3cc4nccc(Oc5ccc(NC(=O)NC6CN(C(=O)Cc7ccccc7)C6)cc5F)c4s3)nc2)CC1 [Compound 53]
25 | 10 | Cc1ccc(S(=O)(=O)N2CC(NC(=O)Nc3ccc(Oc4ccnc5cc(-c6ccc(CN7CCN(C)CC7)cn6)sc45)c(F)c3)C2)cc1 [Compound 55]
26 | 35 | CN1CCN(Cc2ccc(-c3cc4nccc(Oc5ccc(NC(=O)NC6CN(C(=O)OC(C)(C)C)C6)cc5F)c4s3)nc2)CC1 [Compound 50, tert-Butyl 3-(3-(3-fluoro-4-(2-(5-((4-methylpiperazin-1-yl)methyl)pyridin-2-yl)thieno[3,2-b]pyridin-7-yloxy)phenyl)ureido)azetidine-1-carboxylate]
27 | 36 | CN1CCN(Cc2ccc(-c3cc4nccc(Oc5ccc(NC(=O)NC6CN(S(C)(=O)=O)C6)cc5F)c4s3)nc2)CC1 [Compound 54]
28 | 9 | O=C(Nc1ccc(Oc2ccnc3cc(-c4ccc(CN5CCCC5=O)cn4)sc23)c(F)c1)NC1COC1 [Compound 93, 1-(3-Fluoro-4-(2-(5-((2-oxopyrrolidin-1-yl)methyl)pyridin-2-yl)thieno[3,2-b]pyridin-7-yloxy)phenyl)-3-(oxetan-3-yl)urea]
29 | 42 | O=C(Nc1ccc(Oc2ccnc3cc(-c4ccc(CN5CCN(C(=O)CO)CC5)cn4)sc23)c(F)c1)NC1COC1 [Compound 88, 1-(3-Fluoro-4-(2-(5-((4-(2-hydroxyacetyl)piperazin-1-yl)methyl)pyridin-2-yl)thieno[3,2-b]pyridin-7-yloxy)phenyl)-3-(oxetan-3-yl)urea]
